In patent US6359015B1, “Method for antagonizing inhibition effects of alcohol on cell adhesion” (The United States of America as represented by the …, priority 2000, dated 2002):
pIC50: −log10 of the molar value. “Also recorded” adds a separate entry of the source. Where two headings read alike, the source gives them in different places.

Tests used:
[1] = test system: NIH/3T3-L1 (2B2-L1) cells; assay: Antagonism of 1-butanol inhibition of cell adhesion in NIH/3T3-L1 (2B2-L1) cells; format: cell-based, rat; conditions: 1-octanol 5 and 50 μM, 2B2-L1 cells
Protocol: Cell-cell adhesion was measured using a modified short-term aggregation assay of sub-confluent cells (Reference 12). Cells were detached by gentle agitation, mechanically dissociated to obtain a single-cell suspension, and diluted in PBS supplemented with 0.1 mg/ml DNase to 350,000 cells/ml for the NIH/3T3 cells, and 250,000 cells/ml for the NG108-15 cells. One ml of the cell suspension was added per well (4.5 cm^2) of a 12-well plate. After addition of the alcohols, the cells were gently mixed and mechanically shaken for 30 minutes at room temperature on an orbital shaker set at 60 to 80 rpm. Cells were viewed at a final magnification of 200×, and each well was scored for single and adherent cells in five or six microscopic fields of view. We counted approximately 100 cells per field of view and 600 cells per well. The percentage of adherent cells was calculated for each microscopic field of view and averaged. To calculate the magnitude of ethanol inhibition, we subtracted the values for cell adhesion with the Vec-1A5 cells from those of the 2B2-L1 or 2A2-L1 cell lines. Similarly, the values for cell adhesion in NG108-15 cells cultured in serum-free medium were subtracted from those of NG108-15 cells treated with BMP-7. […]

[2] = published or calculated from molecular weight and density at 20° C.; cited from earlier work
[3] = from published source or octanol/water partition coefficient divided by 5; cited from earlier work
NG108-15 cells = assay: BMP-7 morphogenesis (cell clusters) in NG108-15 cells; format: cell-based, rat and mouse; conditions: 3 days; for Antagonism of ethanol inhibition of BMP-7 morphogenesis: 50 mM ethanol and 0.05 mM 1-octanol
Protocol: NG108-15 cells were plated from suspensions of single cells at a density of 50,000 cells/well in poly-D-lysine-coated, 6-well plated containing serum-free medium in the absence or presence of BMP-7, as described (References 17-18). […] Control cultures were treated similarly. The media for all cells was replaced daily following the addition of ethanol. […] A cell cluster was defined as a group of three or more cells that adhered to each other along at least one quarter of their cell bodies (Reference 19). The percentage of cells in clusters was calculated by dividing the number of cells present in clusters by the total number of cells (150 to 200) in each field. Values obtained for each field of a treatment group were then averaged.
Treatment with BMP-7 for 48 hours causes NG108-15 cells to grow in clusters of adherent cells (BMP-7 morphogenesis), rather than as predominantly single cells.
The percentage of cells in clusters of three or more cells was scored from two separate fields viewed under 200×magnification.

[4] = test system: BMP-7 treated NG108-15 cells; assay: Antagonism of short-chain alcohol inhibition of cell adhesion in BMP-7 treated NG108-15 cells; format: cell-based, rat and mouse
Protocol: (§1) Cell-cell adhesion was measured using a modified short-term aggregation assay of sub-confluent cells (Reference 12). Cells were detached by gentle agitation, mechanically dissociated to obtain a single-cell suspension, and diluted in PBS supplemented with 0.1 mg/ml DNase to 350,000 cells/ml for the NIH/3T3 cells, and 250,000 cells/ml for the NG108-15 cells. One ml of the cell suspension was added per well (4.5 cm^2) of a 12-well plate. After addition of the alcohols, the cells were gently mixed and mechanically shaken for 30 minutes at room temperature on an orbital shaker set at 60 to 80 rpm. Cells were viewed at a final magnification of 200×, and each well was scored for single and adherent cells in five or six microscopic fields of view. We counted approximately 100 cells per field of view and 600 cells per well. The percentage of adherent cells was calculated for each microscopic field of view and averaged. To calculate the magnitude of ethanol inhibition, we subtracted the values for cell adhesion with the Vec-1A5 cells from those of the 2B2-L1 or 2A2-L1 cell lines. Similarly, the values for cell adhesion in NG108-15 cells cultured in serum-free medium were subtracted from those of NG108-15 cells treated with BMP-7.

GIRK ¼ potassium channel = target: T1, GIRK ¼ potassium channel (Homo sapiens, UniProt P48544+P48549); conditions: Reference 20; cited from earlier work
T1 sequence (P48549 1-501): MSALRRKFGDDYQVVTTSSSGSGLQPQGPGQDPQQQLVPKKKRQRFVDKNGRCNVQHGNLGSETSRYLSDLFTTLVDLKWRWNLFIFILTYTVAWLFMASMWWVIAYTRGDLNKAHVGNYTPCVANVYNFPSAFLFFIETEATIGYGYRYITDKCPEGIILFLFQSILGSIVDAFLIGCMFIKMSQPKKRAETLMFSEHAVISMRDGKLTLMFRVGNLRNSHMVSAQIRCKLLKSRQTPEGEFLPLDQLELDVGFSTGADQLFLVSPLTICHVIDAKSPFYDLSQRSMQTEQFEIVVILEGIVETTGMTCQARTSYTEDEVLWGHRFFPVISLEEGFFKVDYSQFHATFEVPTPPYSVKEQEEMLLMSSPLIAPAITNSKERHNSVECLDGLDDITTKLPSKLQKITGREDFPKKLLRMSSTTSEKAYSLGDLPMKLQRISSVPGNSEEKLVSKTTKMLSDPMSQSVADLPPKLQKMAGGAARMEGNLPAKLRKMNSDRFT
T1 sequence (P48544 1-419): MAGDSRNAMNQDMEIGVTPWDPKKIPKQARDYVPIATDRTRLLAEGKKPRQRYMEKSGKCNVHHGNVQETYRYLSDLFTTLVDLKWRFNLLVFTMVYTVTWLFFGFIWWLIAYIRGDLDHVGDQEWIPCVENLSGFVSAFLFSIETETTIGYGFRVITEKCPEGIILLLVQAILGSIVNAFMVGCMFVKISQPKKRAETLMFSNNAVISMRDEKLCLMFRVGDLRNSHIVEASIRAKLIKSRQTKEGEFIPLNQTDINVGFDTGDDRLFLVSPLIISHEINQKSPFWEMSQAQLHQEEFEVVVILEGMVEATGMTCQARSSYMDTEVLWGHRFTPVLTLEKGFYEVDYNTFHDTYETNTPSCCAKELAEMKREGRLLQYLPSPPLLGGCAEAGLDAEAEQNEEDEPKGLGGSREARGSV

[5] = test system: BMP-7 treated NG108-15 neuroblastoma×glioma cells; assay: Cell-cell adhesion (short-term aggregation) assay in BMP-7 treated NG108-15 cells; format: cell-based, rat and mouse; conditions: for Inhibition of cell-cell adhesion (in words): both cellular systems (NG108-15 + BMP-7 and L1-expressing NIH/3T3)
Protocol: NIH/3T3 cells were cultured in Dulbecco's minimum Eagle medium (DMEM) (Life Technologies, Gaithersburg, Md.) supplemented with 10% normal calf serum (Intergen, Purchase, N.Y.) and 400 μg/ml G418 (Life Technologies). NG108-15 neuroblastoma×glioma cells (passages 21 to 30) were plated in serum-free, defined medium (Reference 16). At the start of the morphogenetic and cell adhesion assays, serum-free medium containing BMP-7 (Creative BioMolecules, Hopkinton, Ma.) (1-40 ng/ml, final) was added daily to the NG108-15 cells. Both cell lines were cultured at 37° C., in an atmosphere of 90% air and 10% CO2. Three NIH/3T3 subclones were utilized in these studies: 2B2-L1, 2A2-L1 and Vec-1A5. The 2B2-L1 and 2A2-L1 cell lines are subclones derived from a stable transfection of NIH/3T3 cells with the human L1 cDNA, and Vec-1A5 is a subclone from a transfection with the empty expression vector (Reference 12).
Cells were cultured and cell adhesion assays were performed in the absence and presence of the alcohols listed below in Table 1. The concentrations of alcohols used in the adhesion assays were calculated to produce membrane concentrations equivalent to 50-100 mM ethanol. Membrane/buffer partition coefficients (Pm/b) were obtained or were calculated from published octanol/water partition coefficients (Reference 15). Molar volumes were obtained from published sources (References 15) or were calculated from molecular weights and densities at 20° C.
as §1
We tested the effects of a series of alcohols on cell-cell adhesion in two well-characterized model systems. NG108-15 cells were incubated for 48 hours in a serum-free medium supplemented with 10-20 ng/ml BMP-7 to induce L1 and N-CAM gene expression (Reference 10). Parallel experiments were performed using two ethanol-sensitive NIH/3T3 cell lines transfected with human L1 (2B2-L1 and 2A2-L1) (Reference 12) and a NIH/3T3 cell line transfected with the empty expression vector (1A5-V).

[6] = test system: Myeloma cells transfected with L1; conditions: References 14 and 21; cited from earlier work
[7] = test system: insect SF9 cells transfected with L1; conditions: References 14 and 21; cited from earlier work

| SMILES | Mechanism of antagonism of 1-butanol inhibition (in words) [1] | Vm molar volume [2] [mL/mol] | P(m/b) membrane/buffer partition coefficient [3] | Antagonism of ethanol inhibition of BMP-7 morphogenesis (NG108-15 cells) | Antagonism of ethanol inhibition of BMP-7 morphogenesis (NG108-15 cells; listed as Octanol) | Antagonism of inhibition of cell-cell adhesion by 1-butanol (in words) ([4]; 2 mM 1-butanol, BMP-7 treated NG108-15 cells) | Antagonism of the effects of 3-methyl-1-butanol on cell adhesion (in words) ([4]; 3 mM 3-methyl-1-butanol) | Antagonism of the effects of ethanol on cell adhesion (in words) ([4]; 100 mM ethanol) | pIC50 ([4]; NG108-15, read-out: IC50 for antagonism of 1-butanol (and ethanol) inhibition of cell-cell adhesion) | pIC50 ([4]; NG108-15, read-out: IC50 for antagonism of 1-butanol inhibition of cell-cell adhesion) | Potency of antagonism relative to 1-pentanol ([4]; ratio of IC50 values) | Antagonism of ethanol enhancement of GIRK ¼ potassium channel activity (GIRK ¼ potassium channel) | Inhibition of cell-cell adhesion (in words) [5] | Inhibition of cell-cell adhesion at higher concentrations (in words) ([5]; concentrations 5-10 fold higher than those reported in Table 1) | Sensitivity of L1-transfected myeloma cells to ethanol [6] | Inhibition of BMP-7 morphogenesis (percentage of cell clusters) (NG108-15 cells; 50 mM ethanol, 0.1-40 ng/ml BMP-7) | Sensitivity of L1-transfected insect SF9 cells to ethanol [7] |
| --- | --- | --- | --- | --- | --- | --- | --- | --- | --- | --- | --- | --- | --- | --- | --- | --- | --- |
| CCCCCCCCO [1-octanol] | complete, reversible, and non-competitive; also recorded: reduced the maximal effectiveness | 158 | 189 | antagonized | completely abolished | completely abolished | abolished | abolished | 5.44 | 5.44 | approximately 200 times | did not antagonize | not inhibited | inactivity |  |  |  |
| CCO [ethanol] |  | 58 |  |  |  |  |  |  |  |  |  |  | maximally inhibited |  | insensitive | inhibited significantly | insensitive |
